Legend:
Type in all cases: cell-based
[1] = target: T1, EGFR-L858R/C797S (H1975-clone #8 cells) (Homo sapiens, UniProt P00533, C797S/L858R); test: Cell degradation of EGFR, HTRF assay, H1975-clone#8 (L858R/C797S) cells; conditions: 16 h treatment; for DC50: EGFR degradation; for Dmax: maximum percentage of degradation
T1 construct: expressed in transfected cells; host or cells: H1975 (endogenous EGFR knocked out, clone #8)

[2] = target: T2, EGFR L858R (BaF3-L858R cells) (Homo sapiens, UniProt P00533, L858R); test: Cell degradation of EGFR, HTRF assay, BaF3-L858R cells; conditions: 16 h treatment; for DC50: EGFR degradation; for Dmax: maximum percentage of degradation
T2 construct: host or cells: BaF3
How it was run: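 BaF3-L858R cells treated 16 h at 37° C, 5% CO2 with compound (top 10 uM final, 5-fold, 8 doses, 0.1% DMSO). DC50 from four-parameter fit; Dmax is maximum percent degradation.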

[3] = target: T3, p-EGFR L858R (BaF3-L858R cells) (Homo sapiens, UniProt P00533, L858R); test: Cell p-EGFR inhibition assay, HTRF, BaF3-L858R cells; conditions: 16 h treatment; for Imax (%): maximum percentage of pEGFR inhibition; for IC50: pEGFR inhibition
T3 construct: host or cells: BaF3
How it was run: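 BaF3-L858R cells treated 16 h at 37 °C, 5% CO2 with compound from 10 uM top, 5-fold dilutions, 8 doses, in 0.1% DMSO medium. Lysates read overnight by HTRF p-EGFR antibodies; IC50 fitted to four-parameter curve against DMSO high control.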

[4] = target: p-EGFR Del19/C797S (H1975-clone #23 cells) (Homo sapiens, UniProt P00533); test: Cell p-EGFR inhibition assay, HTRF, H1975-clone#23 (DEL19/C797S) cells; conditions: 16 h treatment; for Imax (%): maximum percentage of pEGFR inhibition; for IC50: pEGFR inhibition
How it was run: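 Phospho-EGFR read by overnight HTRF on lysates, normalized to DMSO-treated high control; IC50, Hill slope and Imax fitted. Compounds were applied for 16 h (10 uM top, 5-fold steps, 8 doses) to an H1975 single clone carrying only exogenous Del19/C797S EGFR after sgRNA knockout of endogenous copies.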

SMILES | DC50 [1] [nM] | Dmax [1] [%] | DC50 [2] [nM] | Dmax [2] [%] | Imax (%) [3] [%] | IC50 [3] [nM] | Imax (%) [4] [%] | IC50 [4] [nM]
Cc1cc2cc(n1)-c1c(C)nn(C)c1OC[C@H]1CC[C@H](C1)CN1/C(=N/C2=O)Nc2ccc(N3C[C@@H](C)N(C4CCN(c5cc(F)c([C@H]6CCC(=O)NC6=O)c(F)c5)CC4)C[C@@H]3C)cc21 [Example 200, (R)-3-(4-(4-((2R,5S)-2,5-dimethyl-4-((7^1R,7^3S,E)-1^1,1^3,2^6-trimethyl-3-oxo-5^2,5^3-dihydro-1^1H,5^1H-9-oxa-4-aza-5(2,1)-benzo[d]imidazola-2(2,4)-pyridina-1(4,5)-pyrazola-7(1,3)-cyclopentanacyclononaphane-5^6-yl)piperazin-1-yl)piperidin-1-yl)-2,6-difluorophenyl)piperidine-2,6-dione] | 1.87 | 94.6 | 2.1 | 85.7 | 98.42 | < 0.128 | 102.89 | 1.79
Cc1cc2cc(n1)-c1c(C)nn(C)c1OC[C@H]1CC[C@H](C1)CN1/C(=N/C2=O)Nc2ccc(N3CCN(C4CCN(c5cc(F)c([C@H]6CCC(=O)NC6=O)c(F)c5)CC4)C[C@H]3CF)cc21 [Example 202, (R)-3-(2,6-difluoro-4-(4-((S)-3-(fluoromethyl)-4-((7R,7^3S,E)-1^1,1^3,2^6-trimethyl-3-oxo-5^2,5^3-dihydro-1^1H,5^1H-9-oxa-4-aza-5(2,1)-benzo[d]imidazola-2(2,4)-pyridina-1(4,5)-pyrazola-7(1,3)-cyclopentanacyclononaphane-5^6-yl)piperazin-1-yl)piperidin-1-yl)phenyl)piperidine-2,6-dione] | 4.8 | 87.9 | 1.06 | 92.5 | 92 | 9.25 | 100.52 | 2.48
Cc1cc2cc(n1)-c1c(C)nn(C)c1OC[C@H]1CC[C@H](C1)CN1/C(=N/C2=O)Nc2ccc(N3CCN(CC4CN(c5cc(F)c([C@H]6CCC(=O)NC6=O)c(F)c5)C4)[C@H](C(F)F)C3)cc21 [Example 205, (R)-3-(4-(3-(((S)-2-(difluoromethyl)-4-((7R,7^3S,E)-1^1,1^3,2^6-trimethyl-3-oxo-5^2,5^3-dihydro-1^1H,5^1H-9-oxa-4-aza-5(2,1)-benzo[d]imidazola-2(2,4)-pyridina-1(4,5)-pyrazola-7(1,3)-cyclopentanacyclononaphane-5^6-yl)piperazin-1-yl)methyl)azetidin-1-yl)-2,6-difluorophenyl)piperidine-2,6-dione] | 3.05 | 85.8 | 5.75 | 90.3 | 92.5 | 1.22 | 99.83 | 0.539
COC[C@H]1CN(c2ccc3c(c2)N2C[C@@H]4CC[C@H](COc5c(c(C)nn5C)-c5cc(cc(C)n5)C(=O)/N=C/2N3)C4)CCN1C1CN(C2CCN(c3cc(F)c([C@H]4CCC(=O)NC4=O)c(F)c3)CC2)C1 [Example 206, (R)-3-(2,6-difluoro-4-(4-(3-((R)-2-(methoxymethyl)-4-((7R,7^3S,E)-1^1,1^32^6-trimethyl-3-oxo-5^2,5^3-dihydro-1^1H,5^1H-9-oxa-4-aza-5(2,1)-benzo[d]imidazola-2(2,4)-pyridina-1(4,5)-pyrazola-7(1,3)-cyclopentanacyclononaphane-5^6-yl)piperazin-1-yl)azetidin-1-yl)piperidin-1-yl)phenyl)piperidine-2,6-dione] | 0.54 | 90.7 | 1.1 | 92.1 | 94.08 | 1.17 | 99.52 | 0.851
COC[C@H]1CN(c2ccc3c(c2)N2C[C@@H]4CC[C@H](COc5c(c(C)nn5C)-c5cc(cc(C)n5)C(=O)/N=C/2N3)C4)CCN1C1CCN(c2ccc(NC3CCC(=O)NC3=O)cc2C)CC1 (stereo partly drawn) [Example 207, 3-((4-(4-((R)-2-(methoxymethyl)-4-((7R,7^3S,E)-1^1,1^3,2^6-trimethyl-3-oxo-5^2,5^3-dihydro-1^1H,5^1H-9-oxa-4-aza-5(2,1)-benzo[d]imidazola-2(2,4)-pyridina-1(4,5)-pyrazola-7(1,3)-cyclopentanacyclononaphane-5^6-yl)piperazin-1-yl)piperidin-1-yl)-3-methylphenyl)amino)piperidine-2,6-dione] | 1.7 | 87.5 | 1.04 | 91.9 | 88.5 | 1.5 | 100.67 | 1.4
COC[C@H]1CN(c2ccc3c(c2)N2C[C@@H]4CC[C@H](COc5c(cnn5C)-c5cc(cc(C)n5)C(=O)/N=C/2N3)C4)CCN1C1CN(C2CCN(c3cc(F)c([C@H]4CCC(=O)NC4=O)c(F)c3)CC2)C1 [Example 208, (R)-3-(4-(4-(3-((R)-4-((7^1R,7^3S,E)-1^1,2^6-dimethyl-3-oxo-5^2,5^3-dihydro-1^1H,5^1H-9-oxa-4-aza-5(2,1)-benzo[d]imidazola-2(2,4)-pyridina-1(4,5)-pyrazola-7(1,3)-cyclopentanacyclononaphane-5^6-yl)-2-(methoxymethyl)piperazin-1-yl)azetidin-1-yl)piperidin-1-yl)-2,6-difluorophenyl)piperidine-2,6-dione] | 1.01 | 70.7 | 0.67 | 91.6 | 91.5 | 1.21 | 99.76 | 3.02
Cc1cc2cc(n1)-c1c(C)nn(C)c1OC[C@H]1CC[C@H](C1)CN1/C(=N/C2=O)Nc2ccc(N3CCN(CC4CN(c5cc(F)c([C@H]6CCC(=O)NC6=O)c(F)c5)C4)[C@@H](CF)C3)cc21 [Example 210, (R)-3-(2,6-difluoro-4-(3-(((R)-2-(fluoromethyl)-4-((7R,7^3S,E)-1^1,1^3,2^6-trimethyl-3-oxo-5^2,5^3-dihydro-1^1H,5^1H-9-oxa-4-aza-5(2,1)-benzo[d]imidazola-2(2,4)-pyridina-1(4,5)-pyrazola-7(1,3)-cyclopentanacyclononaphane-5^6-yl)piperazin-1-yl)methyl)azetidin-1-yl)phenyl)piperidine-2,6-dione] | 3.72 | 86.9 | 0.74 | 90.2 | 89.17 | 1.04 | 99.96 | 1.56
Cc1cc2cc(n1)-c1c(C)nn(C)c1OC[C@H]1CC[C@H](C1)CN1/C(=N/C2=O)Nc2ccc(N3CCN(C4CCN(c5cc(F)c([C@H]6CCC(=O)NC6=O)c(F)c5)CC4)C[C@@H]3CF)cc21 [Example 211, (R)-3-(2,6-difluoro-4-(4-((R)-3-(fluoromethyl)-4-((7R,7^3S,E)-1^1,1^3,2^6-trimethyl-3-oxo-5^2,5^3-dihydro-1^1H,5^1H-9-oxa-4-aza-5(2,1)-benzo[d]imidazola-2(2,4)-pyridina-1(4,5)-pyrazola-7(1,3)-cyclopentanacyclononaphane-5^6-yl)piperazin-1-yl)piperidin-1-yl)phenyl)piperidine-2,6-dione] | 3.07 | 88.8 | 0.73 | 91.3 | 89.34 | 2.05 | 99.96 | 1.6

Reference: patent publication US20240425523A1, “Compounds for the Degradation of EGFR Kinase” (Beigene Switzerland GMBH, priority 2023, published 2024)
